In patent publication US10407422B2, “Triazolopyridine inhibitors of myeloperoxidase” (priority 2015, dated 2019):

What was measured:
myeloperoxidase (MPO) [1] = molecular target: T1, myeloperoxidase (MPO) (Homo sapiens (Human), UniProt P05164); assay: MPO chlorination assay (APF assay); type: biochemical; conditions: potency range class
Summary of the method: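 Chlorinating activity followed by APF cleavage to fluorescein (485/535 nm, 3 min kinetic read) after adding APF and 10 μM H2O2. Beforehand, 200 pM enzyme, compound and 120 mM NaCl sat 10 min at room temperature in 100 mM KPi, pH 7.4. Initial-rate slopes gave % inhibition; IC50 by Hill-slope fit.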

myeloperoxidase (MPO) [2] = molecular target: T1, myeloperoxidase (MPO); assay: MPO peroxidation assay (Amplex Red assay); type: biochemical; conditions: potency range class
Summary of the method: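 IC50 values come from a four-parameter fit of rates taken from the linear 180-540 s portion of a 15 min kinetic read of resorufin (Ex 535/Em 590 nm). Amplex Red (200 μM) plus 10 mM H2O2 was added after a 10 min room-temperature preincubation of inhibitor with 200 pM MPO and 40 nM H2O2 in 100 mM KPi, pH 7.4.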

T1 sequence (P05164 49-745): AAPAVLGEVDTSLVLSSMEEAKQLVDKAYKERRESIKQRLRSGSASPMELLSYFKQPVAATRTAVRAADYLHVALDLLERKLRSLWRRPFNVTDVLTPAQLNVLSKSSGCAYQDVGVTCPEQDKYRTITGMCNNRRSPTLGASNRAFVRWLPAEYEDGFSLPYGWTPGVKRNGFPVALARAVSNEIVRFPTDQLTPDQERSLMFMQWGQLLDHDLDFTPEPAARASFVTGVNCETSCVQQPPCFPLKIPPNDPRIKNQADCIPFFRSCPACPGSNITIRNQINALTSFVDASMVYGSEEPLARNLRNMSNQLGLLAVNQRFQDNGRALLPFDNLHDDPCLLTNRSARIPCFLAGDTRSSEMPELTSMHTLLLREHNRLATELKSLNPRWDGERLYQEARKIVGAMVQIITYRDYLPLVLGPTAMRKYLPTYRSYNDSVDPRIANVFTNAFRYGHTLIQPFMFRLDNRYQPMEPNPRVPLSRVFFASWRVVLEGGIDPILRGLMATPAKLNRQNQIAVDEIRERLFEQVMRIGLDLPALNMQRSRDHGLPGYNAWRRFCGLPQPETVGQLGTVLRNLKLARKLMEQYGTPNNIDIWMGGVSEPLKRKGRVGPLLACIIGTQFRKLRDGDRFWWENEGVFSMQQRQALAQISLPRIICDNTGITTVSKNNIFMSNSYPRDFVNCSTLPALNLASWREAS

Compound: Nc1cc(Cn2nnc3c(Cl)cccc32)c2nn[nH]c2n1 [Example 166]
- IC50 (myeloperoxidase (MPO) [1]): 1000 to 10000 nM
- IC50 (myeloperoxidase (MPO) [2]): 1000 to 10000 nM

Compound: Nc1cc(Cn2nnc3ccc(Cl)cc32)c2nn[nH]c2n1 [Example 167, 7-[(6-Chloro-1H-1,2,3-benzotriazol-1-yl)methyl]-3H-[1,2,3]triazolo[4,5-b]pyridin-5-amine]
- IC50 (myeloperoxidase (MPO) [1]): 101 to 999 nM
- IC50 (myeloperoxidase (MPO) [2]): 101 to 999 nM

Compound: Nc1cc(Cn2nnc3cc(Cl)ccc32)c2nn[nH]c2n1 [Example 168, 7-[(5-Chloro-1H-1,2,3-benzotriazol-1-yl)methyl]-3H-[1,2,3]triazolo[4,5-b]pyridin-5-amine]
- IC50 (myeloperoxidase (MPO) [1]): 101 to 999 nM
- IC50 (myeloperoxidase (MPO) [2]): 1 to 100 nM

Compound: Nc1cc(Cn2nnc(-c3ccccc3)n2)c2nn[nH]c2n1 [Example 169, 7-[(5-Phenyl-2H-1,2,3,4-tetrazol-2-yl)methyl]-3H-[1,2,3]triazolo[4,5-b]pyridin-5-amine]
- IC50 (myeloperoxidase (MPO) [1]): 101 to 999 nM
- IC50 (myeloperoxidase (MPO) [2]): 101 to 999 nM

Compound: Nc1cc(Cn2nnc3ccc(Cc4ccccc4)cc32)c2nn[nH]c2n1 [Example 170, 7-[(6-Benzyl-1H-1,2,3-benzotriazol-1-yl)methyl]-3H-[1,2,3]triazolo[4,5-b]pyridin-5-amine]
- IC50 (myeloperoxidase (MPO) [1]): 101 to 999 nM
- IC50 (myeloperoxidase (MPO) [2]): 101 to 999 nM

Compound: Nc1cc(Cn2nnc3cc(Cc4ccccc4)ccc32)c2nn[nH]c2n1 [Example 171, 7-[(5-Benzyl-1H-1,2,3-benzotriazol-1-yl)methyl]-3H-[1,2,3]triazolo[4,5-b]pyridin-5-amine]
- IC50 (myeloperoxidase (MPO) [1]): 101 to 999 nM
- IC50 (myeloperoxidase (MPO) [2]): 101 to 999 nM

Compound: COc1cc2ccc(Cn3cc(Cc4cc(N)nc5[nH]nnc45)cn3)cc2cn1 [Example 172, 7-((1-((3-Methoxyisoquinolin-7-yl)methyl)-1H-pyrazol-4-yl)methyl)-3H-[1,2,3]triazolo[4,5-b]pyridin-5-amine]
- IC50 (myeloperoxidase (MPO) [1]): 101 to 999 nM
- IC50 (myeloperoxidase (MPO) [2]): 1 to 100 nM

Compound: COc1cc2cc(Cn3cc(Cc4cc(N)nc5[nH]nnc45)cn3)ccc2cn1 [Example 173, 7-((1-((3-Methoxyisoquinolin-6-yl)methyl)-1H-pyrazol-4-yl)methyl)-3H-[1,2,3]triazolo[4,5-b]pyridin-5-amine]
- IC50 (myeloperoxidase (MPO) [1]): 101 to 999 nM
- IC50 (myeloperoxidase (MPO) [2]): 1 to 100 nM

Compound: COc1nccc2ccc(Cn3cc(Cc4cc(N)nc5[nH]nnc45)cn3)cc12 [Example 174, 7-((1-((1-Methoxyisoquinolin-7-yl)methyl)-1H-pyrazol-4-yl)methyl)-3H-[1,2,3]triazolo[4,5-b]pyridin-5-amine]
- IC50 (myeloperoxidase (MPO) [1]): 101 to 999 nM
- IC50 (myeloperoxidase (MPO) [2]): 1 to 100 nM

Compound: Nc1cc(Cc2cnn(Cc3ccc4cc[nH]c(=O)c4c3)c2)c2nn[nH]c2n1 [Example 175, 7-((4-((5-Amino-3H-[1,2,3]triazolo[4,5-b]pyridin-7-yl)methyl)-1H-pyrazol-1-yl)methyl)isoquinolin-1(2H)-one]
- IC50 (myeloperoxidase (MPO) [1]): 101 to 999 nM
- IC50 (myeloperoxidase (MPO) [2]): 1 to 100 nM

Compound: Nc1cc(Cc2cnn(Cc3ccc4c(c3)CNC4)c2)c2nn[nH]c2n1 [Example 176, 7-((1-(Isoindolin-5-ylmethyl)-1H-pyrazol-4-yl)methyl)-3H-[1,2,3]triazolo[4,5-b]pyridin-5-amine]
- IC50 (myeloperoxidase (MPO) [1]): 1 to 100 nM
- IC50 (myeloperoxidase (MPO) [2]): 1 to 100 nM

Compound: Nc1cc(Cc2cnn(Cc3cccc(-c4nccs4)c3)c2)c2nn[nH]c2n1 [Example 177, 7-((1-(3-(Thiazol-2-yl)benzyl)-1H-pyrazol-4-yl)methyl)-3H-[1,2,3]triazolo[4,5-b]pyridin-5-amine]
- IC50 (myeloperoxidase (MPO) [1]): 101 to 999 nM
- IC50 (myeloperoxidase (MPO) [2]): 1 to 100 nM

Compound: Nc1cc(Cc2cnn(Cc3cccc(-n4cncn4)c3)c2)c2nn[nH]c2n1 [Example 178, 7-((1-(3-(1H-1,2,4-Triazol-1-yl)benzyl)-1H-pyrazol-4-yl)methyl)-3H-[1,2,3]triazolo[4,5-b]pyridin-5-amine]
- IC50 (myeloperoxidase (MPO) [1]): 101 to 999 nM
- IC50 (myeloperoxidase (MPO) [2]): 1 to 100 nM

Compound: Cn1nnc2cc(Cn3cc(Cc4cc(N)nc5[nH]nnc45)cn3)ccc21 [Example 179, 7-({1-[(1-Methyl-1H-1,2,3-benzotriazol-5-yl)methyl]-1H-pyrazol-4-yl}methyl)-3H-[1,2,3]triazolo[4,5-b]pyridin-5-amine]
- IC50 (myeloperoxidase (MPO) [1]): 101 to 999 nM
- IC50 (myeloperoxidase (MPO) [2]): 1 to 100 nM
